Assay results reported in the NIST ThermoML archive (doi:10.1021/je301030z).
Numbers after ± are expanded uncertainties.

Experiment: mn = molality of the nth substance listed, in mol/kg
Details: 101 kPa, Liquid, Vibrating tube method

NCCO [2-aminoethan-1-ol] + O
mass density [kg/m3]
Details	293.16 K	297.14 K	301.14 K	305.14 K	309.14 K	313.14 K	317.14 K	320.14 K
m1 = 2.8	1004.53 ± 0.11	1003.31 ± 0.11	1001.95 ± 0.11	1000.48 ± 0.11	998.89 ± 0.11	997.21 ± 0.11	995.42 ± 0.11	994.02 ± 0.11
m1 = 7.01	1013.19 ± 0.12	1011.51 ± 0.12	1009.75 ± 0.12	1007.89 ± 0.12	1005.96 ± 0.12	1003.95 ± 0.12	1001.85 ± 0.12	1000.22 ± 0.12
